Measurements taken from patent US7259140B2, “Heparin-binding peptides and uses thereof” (Thomas Jefferson University, priority 2003, dated 2007).
Entries after “also recorded” stand apart in the source; their conditions may differ. Bridge positions count the residues as written; N and C are the ends. Peptide text beside a SMILES is read from it.

What was measured:
[1] = Hemodynamic effects in rats after administration of the LMWH Lovenox; conditions: in the presence of LMWH Lovenox
Experimental: Next, experiments were performed in which the animals were treated with the peptides after the administration of the LMWH Lovenox®, as would happen in the clinical situation, because binding of peptides to LMWH would be expected to reduce the effects of the peptides on hemodynamic function.

[2] = system: Anti-Factor Xa Activity of the Non-Heparin Glycosaminoglycan Orgaran ®; experiment: Anti-Factor Xa assay: neutralization of Orgaran in citrate or plasma in vitro; format: biochemical, human
Experimental: The ability of peptides such as (ARKKAAKA)3VLVLVLVL (SEQ ID NO:5) to neutralize the anti-Factor Xa activity of UFH and LMWH in vitro was tested using the Stachrom Heparin kit (Diagnostica Stago), a standard hematology laboratory assay used to measure the anti-Factor Xa activity of heparin. The assay was performed using the low molecular weight heparin enoxaparin sodium (Lovenox®, Aventis Pharmaceuticals, Inc.), unfractionated heparin (UFH), or the non-heparin glycosaminoglycan danaparoid sodium (Orgaran®, Organon Inc., West Orange, N.J.) in 0.32% citrate or in plasma anticoagulated with 0.32% citrate. Enoxaparin is commonly used clinically as a low molecular weight heparin (LMWH). Danaparoid is commonly used clinically as a non-heparin glycosaminoglycan anticoagulant. Currently, the only FDA approved drug to target UFH is protamine, which is not effective in vivo against LMWH or a non-heparin glycosaminoglycan such as danaparoid. Buffer and ATIII are added to form the heparin/ATIII complex, peptide is added, then Factor Xa, reporter dye substrate for Factor Xa activity, and stop solution, and the dye concentration is read at 405 nm. The absorbance of the dye increases with increasing Factor Xa activity, and thus is inversely proportional to the heparin (anti-Factor Xa activity) concentration. Peptides were tested in plasma obtained from three volunteers (A, B, and C). Platelet function inhibitors PG12 and theophylline were added to the blood immediately upon collection. […]

platelets = experiment: Platelet aggregation with aggregation-inducing agents; format: cell-based, human; conditions: 12 μg/ml; Lovenox 0.5 U/ml; collagen, ADP, ristocetin, epinephrine, SFFLRN, A23187
Experimental: Plasma from six volunteers was tested with various aggregation inducing agents, at several concentrations of each agent, and with six different peptides of the invention. The effect of heparin-binding peptides of the invention on platelet aggregation was determined using standard procedures as previously described. The six peptides which were synthesized and tested were: (ARKKAAKA)4 (SEQ ID NO:31), ARKKAAKA(A16)ARKKAAKA (SEQ ID NO:30), (ARKKAAKA)3ARKKCAKA (SEQ ID NO:33), (ARKKAAKA)3VLVLVLVL (SEQ ID NO:5), C(ARKKAAKA)4C (SEQ ID NO:34), and (AKKARA)6 (SEQ ID NO:32).
The aggregation-inducing agents tested were: collagen, adenosine diphosphate (ADP), ristocetin, epinephrine, the thrombin receptor peptide SFFLRN, and calcium ionophore A23187. Platelets were subjected to protamine, or to SEQ ID NOS:31, 33, 30, 5, 34, or 32 at 12 μg/ml, and Lovenox® at 0.5 U/ml. Platelet aggregation in response to agonists was monitored and percent aggregation was determined over a five minute interval.
The agonist was added after equilibration of the platelets for one minute.

[3] = system: anti-Factor Xa Activity of the Low Molecular Weight Heparin Lovenox ®; experiment: Anti-Factor Xa assay (Stachrom Heparin kit): neutralization of Lovenox in citrate or plasma in vitro; format: biochemical, human; conditions: for Lovenox ® Neutralized: Lovenox 0.7 U/ml
How it was run: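 Chromogenic anti-Factor Xa kit run with UFH, enoxaparin (Lovenox) or danaparoid (Orgaran) in 0.32% citrate or citrated plasma from three volunteers. Heparin/ATIII complex formed, peptide added, then Factor Xa and dye substrate; absorbance at 405 nm, inversely proportional to remaining anti-Factor Xa activity.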

C[C@@H]1NC(=O)[C@H](C)NC(=O)[C@H](CCCCN)NC(=O)[C@H](CCCCN)NC(=O)[C@H](CCCNC(=N)N)NC(=O)[C@H](C)NC(=O)[C@H](C)NC(=O)[C@H](CCCCN)NC(=O)[C@H](C)NC(=O)[C@H](C)NC(=O)[C@H](CCCCN)NC(=O)[C@H](CCCCN)NC(=O)[C@H](CCCNC(=N)N)NC(=O)[C@H](C)NC(=O)[C@@H](N)CSSC[C@@H](C(=O)O)NC(=O)[C@H](C)NC(=O)[C@H](CCCCN)NC(=O)[C@H](C)NC(=O)[C@H](C)NC(=O)[C@H](CCCCN)NC(=O)[C@H](CCCCN)NC(=O)[C@H](CCCNC(=N)N)NC(=O)[C@H](C)NC(=O)[C@H](C)NC(=O)[C@H](CCCCN)NC(=O)[C@H](C)NC(=O)[C@H](C)NC(=O)[C@H](CCCCN)NC(=O)[C@H](CCCCN)NC(=O)[C@H](CCCNC(=N)N)NC(=O)[C@H](C)NC(=O)[C@H](C)NC(=O)[C@H](CCCCN)NC1=O [C(ARKKAAKA)4C, cyclized C(ARKKAAKA)4C] (H-CARKKAAKAARKKAAKAARKKAAKAARKKAAKAC-OH; disulfide 1-34)
effect on blood pressure and heart rate / toxicity [1]: no, or minimal, adverse effects on blood pressure or heart rate; also recorded: not toxic | effect on blood pressure and heart rate / toxicity ([1]; listed as C(ARKKAAKA)4C-cyclized): All rats tested showed no response | Orgaran Neutralized ([2]; 1 μg/ml Peptide, A Plasma): 0.016 ± 0.012 U/ml | Orgaran Neutralized ([2]; 1 μg/ml Peptide, B Plasma): 0.038 ± 0.036 U/ml | Orgaran Neutralized ([2]; 1 μg/ml Peptide, C Plasma): 0.008 ± 0.005 U/ml | Orgaran Neutralized ([2]; 1 μg/ml Peptide, Citrate): 0.072 ± 0.052 U/ml | Orgaran Neutralized ([2]; 6 μg/ml Peptide, A Plasma): 0.074 ± 0.049 U/ml | Orgaran Neutralized ([2]; 6 μg/ml Peptide, B Plasma): 0.027 ± 0.016 U/ml | Orgaran Neutralized ([2]; 6 μg/ml Peptide, C Plasma): 0.030 ± 0.009 U/ml | Orgaran Neutralized ([2]; 6 μg/ml Peptide, Citrate): 0.099 ± 0.062 U/ml | Orgaran Neutralized ([2]; 12 μg/ml Peptide, A Plasma): 0.050 ± 0.031 U/ml | Orgaran Neutralized ([2]; 12 μg/ml Peptide, B Plasma): 0.082 ± 0.029 U/ml | Orgaran Neutralized ([2]; 12 μg/ml Peptide, C Plasma): 0.063 ± 0.025 U/ml | Orgaran Neutralized ([2]; 12 μg/ml Peptide, Citrate): 0.180 ± 0.023 U/ml | Orgaran Neutralized ([2]; 60 μg/ml Peptide, A Plasma): 0.287 ± 0.033 U/ml | Orgaran Neutralized ([2]; 60 μg/ml Peptide, B Plasma): 0.282 ± 0.020 U/ml | Orgaran Neutralized ([2]; 60 μg/ml Peptide, C Plasma): 0.250 ± 0.030 U/ml | Orgaran Neutralized ([2]; 60 μg/ml Peptide, Citrate): 0.319 ± 0.016 U/ml | Orgaran Neutralized ([2]; 120 μg/ml Peptide, A Plasma): 0.389 ± 0.118 U/ml | Orgaran Neutralized ([2]; 120 μg/ml Peptide, B Plasma): 0.374 ± 0.062 U/ml | Orgaran Neutralized ([2]; 120 μg/ml Peptide, C Plasma): 0.335 ± 0.012 U/ml | Orgaran Neutralized ([2]; 120 μg/ml Peptide, Citrate): 0.340 ± 0.010 U/ml | effect on platelet aggregation (platelets): no significant inhibition or enhancement of aggregation | Lovenox ® Neutralized ([3]; 1 μg/ml Peptide, A Plasma): 0.034 ± 0.019 U/ml | Lovenox ® Neutralized ([3]; 1 μg/ml Peptide, B Plasma): 0.022 ± 0.009 U/ml | Lovenox ® Neutralized ([3]; 1 μg/ml Peptide, C Plasma): 0.011 ± 0.005 U/ml | Lovenox ® Neutralized ([3]; 1 μg/ml Peptide, Citrate): 0.058 ± 0.039 U/ml | Lovenox ® Neutralized ([3]; 6 μg/ml Peptide, A Plasma): 0.102 ± 0.012 U/ml | Lovenox ® Neutralized ([3]; 6 μg/ml Peptide, B Plasma): 0.126 ± 0.039 U/ml | Lovenox ® Neutralized ([3]; 6 μg/ml Peptide, C Plasma): 0.092 ± 0.014 U/ml | Lovenox ® Neutralized ([3]; 6 μg/ml Peptide, Citrate): 0.245 ± 0.064 U/ml | Lovenox ® Neutralized ([3]; 12 μg/ml Peptide, A Plasma): 0.213 ± 0.048 U/ml | Lovenox ® Neutralized ([3]; 12 μg/ml Peptide, B Plasma): 0.251 ± 0.098 U/ml | Lovenox ® Neutralized ([3]; 12 μg/ml Peptide, C Plasma): 0.218 ± 0.047 U/ml | Lovenox ® Neutralized ([3]; 12 μg/ml Peptide, Citrate): 0.474 ± 0.024 U/ml | Lovenox ® Neutralized ([3]; 60 μg/ml Peptide, A Plasma): 0.496 ± 0.016 U/ml | Lovenox ® Neutralized ([3]; 60 μg/ml Peptide, B Plasma): 0.506 ± 0.012 U/ml | Lovenox ® Neutralized ([3]; 60 μg/ml Peptide, C Plasma): 0.522 ± 0.009 U/ml | Lovenox ® Neutralized ([3]; 60 μg/ml Peptide, Citrate): 0.554 ± 0.023 U/ml | Lovenox ® Neutralized ([3]; 120 μg/ml Peptide, A Plasma): 0.551 ± 0.031 U/ml | Lovenox ® Neutralized ([3]; 120 μg/ml Peptide, B Plasma): 0.538 ± 0.013 U/ml | Lovenox ® Neutralized ([3]; 120 μg/ml Peptide, C Plasma): 0.592 ± 0.019 U/ml | Lovenox ® Neutralized ([3]; 120 μg/ml Peptide, Citrate): 0.525 ± 0.028 U/ml | anti-LMWH effect in citrate compared with plasma ([3]; Table 2A): greater anti-LMWH effect in citrate than in plasma
